# “Also recorded” adds a separate entry of the source. Read-outs that look alike come from different tables or passages of the source. Marks after values point to notes of the source that are not given here.
# B1: MEDI1/5 IgG1: heavy and light chains SEQ ID Nos. 7 and 3 in IgG1 format (antibody)
# VH: QVQLVESGGGVVQPGRSLRLSCAASGFTFTNYGMHWVRQAPGKGLEWVAVISHDGNNKYYVDSVKGRFTISRDNSKNTLYLQMNSLRAEDTAVYYCAREGIDFWSGLNWFDPWGQGTLVTVSS
# light: EIVLTQSPGTLSLSPGERATLSCRASQSITGSYLAWYQQKPGQAPRLLITGASSWATGIPDRFSGSGSGTDFTLTISRLEPEDFAVYYCQQYSSSPITFGQGTRLEIKRTVAAPSVFIFPPSDEQLKSGTASVVCLLNNFYPREAKVQWKVDNALQSGNSQESVTEQDSKDSTYSLSSTLTLSKADYEKHKVYACEVTHQGLSSPVTKSFNRGEC
# modifications: IgG1 format
# B2: MEDI1/5 IgG2: heavy and light chains SEQ ID Nos. 7 and 3 in IgG2 format (antibody)
# VH: QVQLVESGGGVVQPGRSLRLSCAASGFTFTNYGMHWVRQAPGKGLEWVAVISHDGNNKYYVDSVKGRFTISRDNSKNTLYLQMNSLRAEDTAVYYCAREGIDFWSGLNWFDPWGQGTLVTVSS
# light: EIVLTQSPGTLSLSPGERATLSCRASQSITGSYLAWYQQKPGQAPRLLITGASSWATGIPDRFSGSGSGTDFTLTISRLEPEDFAVYYCQQYSSSPITFGQGTRLEIKRTVAAPSVFIFPPSDEQLKSGTASVVCLLNNFYPREAKVQWKVDNALQSGNSQESVTEQDSKDSTYSLSSTLTLSKADYEKHKVYACEVTHQGLSSPVTKSFNRGEC
# modifications: IgG2 format
# Columns and labels:
# [1] = tested on: LoVo xenograft tumors; type: in vivo; conditions: 3.19.3 10 mg/kg 2×wk i.p., 5FU 100 mg/kg/week i.p., combination of both
# Method: (§1) The anti-tumor activity of 3.19.3 was evaluated in combination with 5-Fluoruracil (5FU) in the LoVo xenograft model of colorectal cancer. LoVo cells were cultured in flasks as routine until the cells reached sub-confluence. Cell suspensions containing approximately 3×10E6 cells were injected subcutaneously into the flank of female Swiss nude mice. When the tumor volume reached 200 mm^3, the mice were randomized in treatment groups of 8-10 mice and the treatments were initiated. 3.19.3 (10 mg/kg) in saline was injected intraperitoneally, twice per week for 2 weeks and 5-Flurouracil (100 mg/kg) was administered by intraperitoneal administration following a weekly schedule. The dimensions of each tumor and body weights were measured at least twice per week. The volume of the tumor was calculated as: Volume=Length×(Width)×0.5 (cm^3).
# [2] = tested on: MDA-MB-231 xenograft tumors; experiment: MDA-MB-231 orthotopic breast cancer xenograft model; type: in vivo; conditions: 3.19.3 10 mg/kg 2×wk i.p., AZD6495 30 mg/kg bid p.o. 18 d, combination of both
# Method: (§2) The anti-tumor activity of the anti-Angiopoietin-2 monoclonal antibody 3.19.3 in combination with the small molecule CSF1R tyrosine kinase inhibitor AZD6495 was evaluated in a xenograft model of human breast carcinoma using the MDA-MB-231 cell line (FIG. 5a).
# Breast adenocarcinoma MDA-MB-231 cells were cultured in flasks as routine until the cells reach sub-confluence. Immunodeficient 7-10 week old female nude mice were orthotopically implanted with 8×10^6 MDA-MB-231 cells suspended 1:1 in Matrigel into the mammary fat pad. The mice were then randomized into cohorts containing 10 mice once the tumors reached approximately 100 mm^3. The mice were treated by intraperitoneally (IP) injection with mAb 3.19.3 (10 mg/kg) twice per week for 3 weeks thereafter, or by oral administration of AZD6495 (30 mg/kg) following bid dosing for 18 days. […] The body weights of each animal, and the dimensions of each tumor were measured twice per week. The volume of the tumor was calculated as: Volume=Length×(Width)^2×0.5 cm^3, or by bilateral Vernier caliper measurement and, taking length to be the longest diameter across the tumor and width the corresponding perpendicular, calculated using the formula (π/6)×(length×width)×√(length×width). Growth inhibition from the start of treatment was assessed by comparison of the differences in tumor volume between control and treated groups.
# [3] = tested on: MCF7 xenograft tumors; experiment: MCF7 breast cancer xenograft model; type: in vivo; conditions: 3.19.3 10 mg/kg 2×wk i.p., AZD6495 30 mg/kg bid p.o. 18 d, combination of both
# Method: as §2, with “AZD6495 (4-[(2,4-difluorophenyl)amino]-7-ethoxy-6-(4-methylpiperazin-1-yl)quinoline-3-carboxamide)” for “AZD6495”, “MCF7” for “MDA-MB-231”, “4a).” for “5a).”
# Materials and Methods: Breast carcinoma MCF7 cells were cultured in flasks as routine until the cells reach sub-confluence. Immunodeficient 7-10 week old male NCr-nude mice were subcutaneously implanted with 8×10^6 MCF7 cells suspended 1:1 in Matrigel in the right flank. […]
# The mice were then randomized into cohorts containing 15 mice once the tumors reached approximately 100 mm^3. […] The body weights of each animal, and the dimensions of each tumor were measured twice per week. The volume of the tumor was calculated as: Volume=Length×(Width)^2×0.5 cm^3, or by bilateral Vernier caliper measurement and, taking length to be the longest diameter across the tumor and width the corresponding perpendicular, calculated using the formula (π/6)×(length×width)×√(length×width). Growth inhibition from the start of treatment was assessed by comparison of the differences in tumor volume between control and treated groups.
# [4] = tested on: Calu6 xenograft tumors; type: in vivo; conditions: 3.19.3 10 mg/kg 2×wk i.p., Docetaxel 15 mg/kg/week i.v., combination of both
# Method: as §1, with “with Docetaxel” for “with 5-Fluoruracil (5FU)”, “the Calu6” for “the LoVo”, “of lung” for “of colorectal”, “cancer. Calu6” for “cancer. LoVo”, “2 weeks. Docetaxel (15” for “2 weeks and 5-Flurouracil (100”, “by intravenous” for “by intraperitoneal”
# [5] = tested on: Colo205 xenograft tumors; experiment: Colo205 xenograft model of colorectal cancer; type: in vivo; conditions: 3.19.3 10 mg/kg 2×wk i.p., Gemcitabine 50 mg/kg q3dx2 i.v., combination of both
# Method: (§3) The anti-tumor activity of 3.19.3 was evaluated in combination with Gemcitabine in the Colo205 xenograft model of colorectal cancer. Colo205 cells were cultured in flasks as routine until the cells reached sub-confluence. Cell suspensions containing approximately 3×10E6 cells were injected subcutaneously into the flank of female Swiss nude mice. When the tumor volume reached 200 mm^3, the mice were randomized in treatment groups of 8-10 mice and the treatments were initiated. 3.19.3 (10 mg/kg) in saline was injected intraperitoneally, twice per week for 2 weeks. Gemcitabine (50 mg/kg) was administered by intravenous administration following a q3d schedule. The dimensions of each tumor and body weights were measured at least twice per week. The volume of the tumor was calculated as: Volume=Length×(Width)×0.5 (cm^3). […] The % tumor growth inhibition achieved is as follows: […]
# [6] = tested on: HT-29 xenograft tumors; experiment: HT-29 xenograft model of colorectal cancer; type: in vivo; conditions: 3.19.3 10 mg/kg 2×wk i.p., Irinotecan 35 mg/kg/week i.v., combination of both
# Method: as §3, with “Irinotecan” for “Gemcitabine”, “HT-29” for “Colo205”, “Irinotecan (35” for “Gemcitabine (50”, “weekly” for “q3d”
# [7] = tested on: H460 xenograft tumors; type: in vivo; conditions: 3.19.3 10 mg/kg 2×wk i.p., Oxaliplatin 5 mg/kg/week i.p., combination of both
# Method: as §1, with “Oxaliplatin” for “5-Fluoruracil (5FU)”, “H460” for “LoVo”, “lung” for “colorectal”, “weeks. Oxaliplatin (5” for “weeks and 5-Flurouracil (100”
# [8] = tested on: collagen induced arthritis
# [9] = tested on: collagen-induced arthritis; experiment: Collagen-induced arthritis (CIA), dose response (Example 11); type: in vivo, male DBA/1 mice
# [10] = Differential Scanning Calorimetry (DSC) analysis; type: physicochemical; conditions: 1 g/L antibody in 10 mM histidine, pH 6.0
# [11] = Stability study: rate of aggregation of antibody formulations; type: physicochemical; conditions: 10 mg/ml in 10 mM histidine pH 6.0, two weeks
# Method: Samples of the aforementioned formulations were incubated at either 25° C. or 40° C. for two weeks. As a measure of stability, the rate of aggregation (% aggregation/mth) was calculated after the two week time point.
# [12] = means ± SEM, 3.19.3 10 mg/kg i.p every 3 days, hIgG i.p, Prednisolone 3 mg/kg p.o daily, 14 days from disease onset
# [13] = 3 mg/kg po daily for 14 days from disease onset
molecule,measurement,setting,value
"O=c1[nH]cc(F)c(=O)[nH]1 [5-flurouracil, 5-Flurouracil]",% tumor growth inhibition,[1],62%
same,% tumor growth inhibition,[1]; listed as 5 FU,62%
"CCOc1cc2ncc(C(N)=O)c(Nc3ccc(F)cc3F)c2cc1N1CCN(C)CC1 [AZD6495, 4-[(2,4-difluorophenyl)amino]-7-ethoxy-6-(4-methylpiperazin-1-yl)quinoline-3-carboxamide]",% tumor growth inhibition,[2],25%
same,% tumor growth inhibition,[3],32%
CC(=O)O[C@@]12CO[C@@H]1C[C@H](O)[C@@]1(C)C(=O)[C@H](O)C3=C(C)[C@@H](OC(=O)[C@H](O)[C@@H](NC(=O)OC(C)(C)C)c4ccccc4)C[C@@](O)([C@@H](OC(=O)c4ccccc4)[C@H]21)C3(C)C [Docetaxel],% tumor growth inhibition,[4],43%
Nc1ccn([C@@H]2O[C@H](CO)[C@@H](O)C2(F)F)c(=O)n1 [Gemcitabine],% tumor growth inhibition,[5],8%
CCc1c2c(nc3ccc(OC(=O)N4CCC(N5CCCCC5)CC4)cc13)-c1cc3c(c(=O)n1C2)COC(=O)[C@]3(O)CC [Irinotecan],% tumor growth inhibition,[6],56%
O=C1[O][Pt]2([NH][C@@H]3CCCC[C@H]3[NH]2)[O]C1=O [Oxaliplatin],% tumor growth inhibition,[7],35%
C[C@]12C=CC(=O)C=C1CC[C@@H]1[C@@H]2[C@@H](O)C[C@@]2(C)[C@H]1CC[C@]2(O)C(=O)CO [Prednisolone],histopathological evaluation of arthropathy lesions (in words),"[8]; 3.19.3 10 mg/kg, Human IgG isotype control, Prednisolone 3 mg/kg",marked reduction in the incidence and severity of all arthropathy lesions
same,% Inhibition (of AUC of clinical disease progression),[8]; [12],76.1% ± 9.6%
same,Area Under Curve (AUC) of clinical disease progression,[8]; [12],24.5 ± 9.6
same,% inhibition (AUC of Clinical Score),[9]; [13],78% +/− 7%*
same,AUC of Clinical Score,[9]; [13],41 +/− 08
same,CD31+ microvessel density in synovium (in words),"[9]; 3.19.3 at 1 and 10 mg/kg, prednisolone 3 mg/kg",significant reduction in microvessel density; also recorded: significant reduction in the presence of microvessels
same,incidence and severity of all measures (in words),[9]; Prednisolone 3 mg/kg p.o.,marked reduction in the incidence and severity of all measures
B1,melting temperature,[10],about 76 °C
same,% Agg/mth @ 25° C.,[11],0.21 % Agg/mth
same,% Agg/mth @ 40° C.,[11],0.21 % Agg/mth
B2,melting temperature,[10],about 76 °C
same,behaviour after melting in DSC (in words),[10]; two independent trials,subsequently falls out of solution
same,% Agg/mth @ 25° C.,[11],0.61 % Agg/mth
same,% Agg/mth @ 40° C.,[11],0.82 % Agg/mth
